Measurements published in paper PMC7985203, “LLL12B, a small molecule STAT3 inhibitor, induces growth arrest, apoptosis, and enhances cisplatin-mediated cytotoxicity in medulloblastoma cells” (Scientific Reports, 2021).
Like-named read-outs stand apart in the source and are kept apart here.

Columns and labels:
active caspase-3/7 = assay: Apoptosis assay (Caspase-3/7 Fluorescence Assay Kit); type: cell-based, human; settings: D425, D283, UW426 cells; LLL12B 1 μM, cisplatin 2.5 μM, 5 h
Procedure: Cells were plated in 96-well plates (8000–12,000 cells/well) and allowed to adhere overnight. Cells were treated with LLL12B or DMSO only. After 5 h treatment, active caspase-3/7 were measured using Caspase-3/7 Fluorescence Assay Kit (Cayman, Ann Arbor, MI) according to the manufacture’s instruction. Briefly, cells were centrifuged in the plate (800 g, 5 min) and the culture medium was aspirated, and then 200 µL of assay buffer was added to each well to wash the cells and the supernatant was removed after centrifuge. After that, 100 µL of cell-based assay lysis buffer was added to each well with shaking for 30 min at room temperature. Subsequently, 90 µL of the supernatant from each well was transferred to a corresponding well in a new black 96-well plate and 10 µL of assay buffer was added to appropriate wells. The plate was incubated at 37 °C for 90 min followed by addition of 100 µL of the caspase-3/7 substrate solution. Finally, the fluorescence intensity of each well was read at excitation 485 nm and emission 535 nm. All treatments were performed in triplicate.

[1] = system: D283 medulloblastoma xenografts; assay: D283 tumor xenograft model in nude mice; type: in vivo; settings: for STAT3 phosphorylation in tumors: Western blot, LLL12B 2.5 mg/kg and/or cisplatin 5 mg/kg
Procedure: (§1) All animal studies were carried out in accordance with the standard procedures approved by the Institutional Animal Care and Use Committee (IACUC) of University of Maryland School of Medicine and University of Florida respectively. Furthermore, our animal studies were performed in compliance with the ARRIVE guidelines. Cells (1 × 10^7 cells/sites) were suspended in PBS mixed with matrigel (1:1, Corning, # 354234) and injected subcutaneously into the flank region of 4 to 5 week-old female athymic nude mice (Envigo). When the volume of the tumors reached approximately 100 mm^3, mice were randomized into four groups: (1) LLL12B (2.5 mg/kg) treated orally once daily only, (2) cisplatin (5 mg/kg) intraperitoneal injection treated once every four days only, (3) combination of LLL12B (2.5 mg/kg) oral once daily and cisplatin (5 mg/kg) intraperitoneal injection once every four days and (4) vehicle only once daily. Tumor growth was determined by measuring the minor (W) and major (L) diameter once every other day with a caliper, and calculated according to the following equation: tumor volume = 0.5236 × L × W^2. Body weight and clinical signs were monitored once every other day. In vivo PK studies in mice were performed by Dr. Chenglong Li’s laboratory at the University of Florida.
Figure 6 LLL12B suppressed tumor growth in medulloblastoma xenografts. (A) Tumor volume, (B) Tumor weights. (C) Tumor samples. (D) Body weights. (E) Western blot of tumor samples. The protein expression levels of P-STAT3(Y705), STAT3, and GAPDH. D283 cells (1 × 10^7 cells/tumor) were harvested and suspended in PBS and then implanted subcutaneously with matrigel (1:1 ratio) into the flank region of 4 to 5 week-old female athymic nude mice. Mice were randomized into three groups (6 mice for each group) and treated with LLL12B (2.5 mg/kg or 5 mg/kg, oral gavage, once daily).
Figure 9 LLL12B and cisplatin combination suppressed tumor growth in D283 medulloblastoma xenografts. (A) Tumor volumes. (B) Tumor weights. (C) Body weight. (D) Western blots to analyze protein expression in the representative tumor samples. Expression levels of p-STAT3(Y705), STAT3, CyclinD1, Survivin, and GAPDH. D283 medulloblastoma cells (1 × 10^7 cells/tumor) were implanted subcutaneously into the flank region of 4 to 5 week-old female athymic nude mice. Mice were randomized into four groups (5 mice for each group) and treated with LLL12B (2.5 mg/kg, oral gavage, once daily) and/or cisplatin (5 mg/kg, intraperitoneal injection, once every 4 days) or vehicle alone.

[2] = system: D425 medulloblastoma xenografts; assay: D425 tumor xenograft model in nude mice; type: in vivo; settings: for STAT3 phosphorylation in tumors: Western blot, LLL12B 2.5 mg/kg and/or cisplatin 5 mg/kg
Procedure: as §1
Figure 10 Anti-neoplastic activity of LLL12B and cisplatin combined treatment of D425 medulloblastoma xenografts. (A) Tumor volumes. (B) Tumor weights. (C) Body weights. (D) Protein analysis of the representative tumor samples by western blots. Expression levels of p-STAT3 (Y705), STAT3, CyclinD1, Survivin, and GAPDH. D245 medulloblastoma cells (1 × 10^7 cells/tumor) were implanted subcutaneously into the flank region of 4 to 5 week-old female athymic nude mice. Mice were randomized into four groups (5 mice for each group) and treated with LLL12B (2.5 mg/kg, oral gavage, once daily) and/or cisplatin (5 mg/kg, intraperitoneal injection, once every 4 days) or vehicle alone.

[3] = In vivo pharmacokinetics (PK) in mice dosed PO
[4] = system: STAT3 phosphorylation (Y705); assay: Western blot of STAT3 phosphorylation in medulloblastoma cells; type: cell-based, human
Text: (§2) Cells was harvested and extracted using cell lysis buffer (Cell Signaling) supplemented with phosphatase and protease inhibitors. Tumors from mice were grinded in the liquid nitrogen, and extracted proteins using cell lysis buffer supplemented with phosphatase and protease inhibitors. Extracted protein samples were separated by 10% SDS-PAGE and transferred to polyvinylidene difluoride membranes. After blocking with TBS-T buffer containing 5% skim milk (Lab Scientific Inc) at room temperature for 1 h, each membrane was incubated at 4 °C overnight with one of the following primary antibodies at 1:1,000 dilution: rabbit anti-phosphorylated STAT3 (Y705), rabbit anti-STAT3, rabbit anti-phosphorylated STAT1 (Y701), rabbit anti-STAT1, rabbit anti-Cyclin D1, rabbit anti-Survivin, and rabbit anti-GAPDH. Subsequently, each membrane was washed with TBS-T and incubated with horseradish peroxidase-conjugated secondary antibody (1:10,000) at room temperature for 1.5 h. Proteins of interest were visualized using SUPERSIGNAL West Femto Maximum Sensitivity Substrate (Thermo, #34096). Quantification was performed using ImageJ.

Cyclin D1 and Survivin = assay: Western blot of STAT3 downstream targets in medulloblastoma cells; type: cell-based, human; settings: D283, D425, UW426, UW288 cells; 0.5 to 2.5 μM, 16 h
Text: as §2

P-AKT = assay: Western blot of P-AKT in medulloblastoma cells; type: cell-based, human; settings: 4 or 8 h
P-ERK = assay: Western blot of P-ERK in medulloblastoma cells; type: cell-based, human; settings: 0.5 to 2.5 μM, 4 or 8 h
[5] = system: IL-6 induced phosphorylation of STAT3; assay: IL-6 stimulated P-STAT3 in DaoY cells (Western blot); type: cell-based, human; settings: 1 and 2.5 μM for 4 h, then IL-6 50 ng/mL 30 min
Text: as §2
(§3) To verify the selective toxicity of LLL12B, DaoY human medulloblastoma cell line was used and treated with LLL12B (1 and 2.5 μM) or DMSO for 4 h followed by induction of IL-6 or INF-γ (50 ng/mL) for 30 min. […]

[6] = system: INF-γ stimulated STAT1 phosphorylation; assay: INF-γ induced P-STAT1 in DaoY cells (Western blot); type: cell-based, human; settings: 1 and 2.5 μM for 4 h, then INF-γ 50 ng/mL 30 min
Text: as §2, §3

[7] = system: D425 medulloblastoma cells; assay: MTT cell viability assay, D425; type: cell-based, human; settings: 0.5 μM, 48 h, siRNA transfection experiment
Procedure: SignalSilence STAT3 siRNA I was purchased from Cell Signaling (#6580) and medulloblastoma cells were transfected using Lipofectamine 2000 reagent (Invitrogen). The sequence of STAT3 siRNA: GGUCCCUCAUCCUGUUUGU, ACAAACAGGAUGAGGGACC. AMBION SILENCER Negative Control siRNA (#AM4611) was purchased from Invitrogen. Cells were seeded in 96-well plates (8,000 cells/well) and allowed to adhere overnight. siRNA and Lipofectamine 2000 were diluted at 1:50 in Opti-MEM medium respectively. Gently mixed and incubated at room temperature for 5 min, and then the diluted siRNA was added to the diluted Lipofectamine 2000 reagent (1:1 ratio) with an additional incubation of 25 min. The final concentration of siRNA was 100 nM. After that, culture medium was replaced by Lipofectamine 2000 reagent: siRNA complexes and cultured for 24 h. After transfection, cells were treated with LLL12B or DMSO only for 48 h, and then cell viability was measured by MTT assay.
Cells were seeded in 96-well plates at a density of 3,000 cells. After overnight attachment, cells were treated with different concentrations of LLL12B and/or cisplatin or DMSO alone. After 72 h treatment, 20 μL of MTT solution was added for 4 h of additional culture, and then 150 μL of DMF solubilization solution was added with shaking overnight in the dark. Absorbance was measured at 595 nm. Combination index (CI) was calculated using ComuSyn software. […]

[8] = system: D283 medulloblastoma cells; assay: Tumorsphere formation, D283; type: cell-based, human; settings: LLL12B 0.5 and 1 μM and/or cisplatin 0.5 and 1 μM, 8 days
Procedure: (§4) Cells were seeded (10,000 cells/mL) in ultra-low attachment 6-wells plates and treated with different concentrations of LLL12B and/or cisplatin or DMSO alone for 8 days. One-half of the culture volume of fresh 3D Tumorsphere Medium XF was added every 4 days. Images were captured on a Nikon Eclipse TS100 microscope. Original magnification, × 10.

[9] = system: D425 medulloblastoma cells; assay: Tumorsphere formation, D425; type: cell-based, human; settings: LLL12B 0.5 and 1 μM and/or cisplatin 0.5 and 1 μM, 8 days
Procedure: as §4

[10] = system: D425 medulloblastoma cells; assay: Pilot orthotopic tumor model in vivo; design: species or system mice
STAT3 protein = system: STAT3 protein; design: method as in PMID 32412740; settings: intact MCF-7 breast cancer cells; cited from earlier work
[11] = LLL12B 2.5 mg/kg oral daily and/or cisplatin 5 mg/kg ip every 4 days

N.N.[Cl][Pt][Cl] [cisplatin]
caspase-3/7 activation (apoptosis) (active caspase-3/7): increased
STAT3 phosphorylation in tumors [1]: reduce or partially reduce
STAT3 phosphorylation in tumors [2]: reduce or partially reduce

CN(C)C(=O)Oc1cccc2c1C(=O)c1cccc(S(N)(=O)=O)c1C2=O [LLL12B]
Cmax compared to LLL12 ([3]; LLL12B 8 mg/kg vs LLL12 20 mg/kg): more than doubled
AUC ([3]; mouse, in vivo, 8 mg/kg): 1.36 µM·h
Cmax ([3]; mouse, in vivo, 8 mg/kg): 278 nM
bioavailability ([3]; mouse, in vivo, 8 mg/kg, read-out: Bioavailability (F)): 47.7%
Tmax ([3]; mouse, in vivo, po, 8 mg/kg, one time 8 mg/kg, read-out: oral Tmax): ~8 h
Tmax ([3]; mouse, in vivo, po, 8 mg/kg, read-out: Tmax): 7.68 h
STAT3 phosphorylation (Y705) ([4]; D283, D425, UW426, UW288 cells, 0.5 to 2.5 μM, 16 h): dose-dependently suppressed
P-STAT3 levels ([4]; UW426, UW288, D283 cells, 0.5, 1.0, 2.5 μM, 4 and 8 h): significantly reduced
expression of Cyclin D1 and Survivin (Cyclin D1 and Survivin): downregulated
P-AKT (P-AKT; D283 cells, 0.5 to 2.5 μM): induced
P-AKT (P-AKT; UW288 cells, 0.5 to 2.5 μM): some inhibition
P-AKT (P-AKT; UW426 cells, 2.5 μM): bound back
P-AKT (P-AKT; UW426 cells, 0.5 and 1.0 μM): reduced
P-ERK (P-ERK; D283 cells): did not generally inhibit
P-ERK (P-ERK; UW288 cells): some inhibition
P-ERK (P-ERK; UW426 cells): induced
IL-6 induced phosphorylation of STAT3 [5]: significantly inhibited
induction of phosphorylated STAT1 protein by INF-γ [6]: without affecting
cell viability [7]: could impede cell viability
caspase-3/7 activation (apoptosis) (active caspase-3/7): increased
tumorsphere formation [8]: numbers and sizes of tumorspheres decreased
tumorsphere formation [9]: numbers and sizes of tumorspheres decreased
suppression of tumor growth and tumor weights vs vehicle ([1]; 2.5 mg/kg oral gavage once daily): ~ 40%
suppression of tumor growth and tumor weights vs vehicle ([1]; 5 mg/kg oral gavage once daily): ~ 75%
body weight of mice ([1]; 2.5 or 5 mg/kg oral gavage once daily): no significant impact
P-STAT3(Y705) level in tumors ([1]; 2.5 or 5 mg/kg oral, Western blot vs vehicle): dose-dependently down-regulated
body weights [1, 11]: little effect
STAT3 phosphorylation in tumors [1]: reduced
body weights [2, 11]: little effect
STAT3 phosphorylation in tumors [2]: reduced
survival of mice with tumors [10]: limited extension of the survival

NS(=O)(=O)c1cccc2c1C(=O)c1cccc(O)c1C2=O [LLL12]
AUCall ([3]; 20 mg/kg): 0.0407 µM·h
Bioavailability (F) ([3]; 20 mg/kg): 2.73%
Cmax ([3]; 20 mg/kg): 176 nM
Tmax ([3]; 20 mg/kg): 0.083 h
oral Tmax ([3]; one time 20 mg/kg): 5 min
survival (average) ([10]; vehicle 19 days): 24 days
binding to STAT3 protein in intact cells (STAT3 protein): binds to STAT3 protein
